Test results taken from patent publication US9399637B2, “Substituted heteroaryl compounds and methods of use” (Calitor Sciences, LLC, priority 2014, dated 2016).
pIC50: −log10 of the molar value.

Legend:
[1] = Compound stability in human liver microsomes; assay type: in vitro ADME; details: pH 7.4; for half-life at 5 μM: human liver microsomes 0.5 mg protein/mL, compound 5 μM, NADPH, 37° C., read-out: Human T1/2; for CLint scaled at 5 μM: human liver microsomes, in vivo CLint extrapolated
Protocol: (§1) Human or rat liver microsomes incubations were conducted in duplicate in polypropylene tubes. The typical incubation mixtures consisted of human or rat liver microsomes (0.5 mg protein/mL), compounds of interest (5 μM) and NADPH (1.0 mM) in a total volume of 200 μL potassium phosphate buffer (PBS, 100 mM, pH 7.4). Compounds were dissolved in DMSO and diluted with PBS such that the final concentration of DMSO was 0.05%. The enzymatic reactions were commenced with the addition of […] after a 3-min preincubation and incubated in a water bath open to the air at 37° C. Reactions were terminated at various time points (0, 5, 10, 15, 30, 60 min) by adding equal volume of ice-cold acetonitrile. The samples were stored at […] until LC/MS/MS assays.
(§2) The concentrations of compounds in the incubation mixtures of human or rat liver microsomes were determined by a LC/MS/MS method. The ranges of the linearity in the concentration range were determined for each tested compounds.
(§3) A parallel incubation was performed using denatured microsomes as the negative control, and reactions were terminated at various time points (0, 15, 60 min) after incubation at 37° C.
(§4) Dextromethorphan (70 μM) was selected as the positive control, and reactions were terminated at various time points (0, 5, 10, 15, 30, 60 min) after incubation at 37° C. Both positive and negative control samples were included in each assay to ensure the integrity of the microsomal incubation system.
(§5) The concentrations of compounds in human or rat liver microsome incubations were plotted as a percentage of the relevant zero time point control for each reaction. The in vivo CLint were extrapolated (ref.: Naritomi, Y.; Terashita, S.; Kimura, S.; Suzuki, A.; Kagayama, A.; and Sugiyama, Y.; Prediction of human hepatic clearance from in vivo animal experiments and in vitro metabolic studies with liver microsomes from animals and humans. Drug Metab. Dispos., 2001, 29: 1316-1324).

[2] = Compound stability in rat liver microsomes; assay type: in vitro ADME; details: pH 7.4; for half-life at 5 μM: rat liver microsomes 0.5 mg protein/mL, compound 5 μM, NADPH, 37° C., read-out: Rat T1/2; for CLint scaled at 5 μM: rat liver microsomes, in vivo CLint extrapolated
Protocol: as §1, §2, §3, §4, §5

[3] = Pharmacokinetics after intravenous and oral administration in rats; assay type: in vivo; details: iv dosing, 1 mg/kg; for AUC(0-t) / half-life / Vd: rat, plasma; for Vd: read-out: Vss
Protocol: The LC/MS/MS system used in the analysis consists of an Agilent 1200 Series vacuum degasser, binary pump, well-plate autosampler, thermostatted column compartment, the Agilent G6430 Triple Quadrupole Mass Spectrometer with an electrosprayionization (ESI) source. Quantitative analysis was carried out using MRM mode. The parameters for MRM transitions are in the Table A.
An Agilent XDB-C18, 2.1×30 mm, 3.5 μM column was used for the analysis. 5 μL of the samples were injected. Analysis condition: The mobile phase was 0.1% formic acid in water (A) and 0.1% formic acid in methanol (B). The flow rate was 0.4 mL/min. And the gradient of Mobile phase was in the Table B.
Alternatively, an Agilent 6330 series LC/MS/MS spectrometer equipped with G1312A binary pumps, a G1367A autosampler and a G1314C UV detector were used in the analysis. An ESI source was used on the LC/MS/MS spectrometer. The analysis was done in positive ion mode as appropriate and the MRM transition for each analyte was optimized using standard solution. A Capcell MP-C18 100×4.6 mm I.D., […] column (Phenomenex, Torrance, Calif., USA) was used during the analysis. The mobile phase was 5 mM ammonia acetate, 0.1% MeOH in water (A): 5 mM ammonia acetate, 0.1% MeOH in acetonitrile (B) (70:30, v/v). The flow rate was 0.6 mL/min. Column was maintained at ambient temperature. 20 μL of the samples were injected.
The compounds disclosed herein are assessed in pharmacokinetic studies in mice, rats, dogs or monkeys. The compounds are administered as a water solution, 2% HPMC+1% TWEEN®80 in water solution, 5% DMSO+5% solutol in saline, 4% MC suspension or capsule. For the intravenous administration, the animals are generally given at 1 or 2 mg/kg dose. For the oral (p.o.) dosing, mice and rats are generally given 5 or 10 mg/kg dose, and dogs and monkeys are generally given 10 mg/kg dose. The blood samples (0.3 mL) are drawn at 0.25, 0.5, 1.0, 2.0, 3.0, 4.0, 6.0, 8.0, 12 and 24 h time points or 0.083, 0.25, 0.5, 1.0, 2.0, 4.0, 6.0, 8.0 and 24 h time points and centrifuged at 3,000 or 4000 rpm for 2 to 10 min. The plasma solutions are collected, and stored at −20° C. or −70° C. until analyzed by LC/MS/MS as described above.

[4] = target: T1, JAK1 (h) (Homo sapiens, UniProt P23458); assay: JAK1 kinase assay; assay type: biochemical
T1 construct: purchased Millipore UK Ltd (assays run there as a service)
Protocol: (§6) Kinase assays can be performed by measurement of incorporation of γ-^33P ATP into immobilized myelin basic protein (MBP). High binding white 384 well plates (Greiner) are coated with MBP (Sigma #M-1891) by incubation of 60 μL/well of 20 μg/mL MBP in Tris-buffered saline (TBS; 50 mM Tris pH 8.0, 138 mM NaCl, 2.7 mM KCl) for 24 h at 4° C. Plates are washed 3× with 100 μL TBS. Kinase reactions are carried out in a total volume of 34 μL in kinase buffer (5 mM Hepes pH 7.6, 15 mM NaCl, 0.01% bovine gamma globulin (Sigma #I-5506), 10 mM MgCl2, 1 mM DTT, 0.02% TritonX-100). Compound dilutions are performed in DMSO and added to assay wells to a final DMSO concentration of 1%. Each data point is measured in duplicate, and at least two duplicate assays are performed for each individual compound determination. Enzyme is added to final concentrations of 10 nM or 20 nM, for example. A mixture of unlabeled ATP and γ-^33P ATP is added to start the reaction (2×10^6 cpm of γ-^33P ATP per well (3000 Ci/mmole) and 10 μM unlabeled ATP, typically. The reactions are carried out for 1 h at room temperature with shaking Plates are washed 7× with TBS, followed by the addition of 50 μL/well scintillation fluid (Wallac). Plates are read using a Wallac Trilux counter. This is only one format of such assays; various other formats are possible, as known to one skilled in the art.
(§7) The above assay procedure can be used to determine the IC50 for inhibition and/or the inhibition constant, Ki. The IC50 is defined as the concentration of compound required to reduce the enzyme activity by 50% under the condition of the assay. The IC50 value is estimated by preparing a 10 point curve using a ½ log dilution series (for example, a typical curve may be prepared using the following compound concentrations: 3 μM, 1 μM, 0.3 μM, 0.1 μM, 0.03 μM, 0.01 μM, 0.003 μM, 0.001 μM, 0.0003 μM and 0 μM).
JAK1 (h) is incubated with 20 mM Tris/HCl pH 7.5, 0.2 mM EDTA, 500 μM […], 10 mM MgAcetate and [γ-^33P-ATP] (specific activity approx. 500 cpm/pmol, concentration as required).
(§8) The kinase assays described herein were performed at Millipore UK Ltd, Dundee Technology Park, Dundee DD2 1SW, UK.

[5] = target: T2, JAK2 (h) (Homo sapiens, UniProt O60674); assay: JAK2 kinase assay; assay type: biochemical
T2 construct: purchased Millipore UK Ltd (assays run there as a service)
Protocol: as §6, §7
(specific activity approx. 500 cpm/pmol, concentration as required).
as §8

T1 sequence (P23458 whole entry): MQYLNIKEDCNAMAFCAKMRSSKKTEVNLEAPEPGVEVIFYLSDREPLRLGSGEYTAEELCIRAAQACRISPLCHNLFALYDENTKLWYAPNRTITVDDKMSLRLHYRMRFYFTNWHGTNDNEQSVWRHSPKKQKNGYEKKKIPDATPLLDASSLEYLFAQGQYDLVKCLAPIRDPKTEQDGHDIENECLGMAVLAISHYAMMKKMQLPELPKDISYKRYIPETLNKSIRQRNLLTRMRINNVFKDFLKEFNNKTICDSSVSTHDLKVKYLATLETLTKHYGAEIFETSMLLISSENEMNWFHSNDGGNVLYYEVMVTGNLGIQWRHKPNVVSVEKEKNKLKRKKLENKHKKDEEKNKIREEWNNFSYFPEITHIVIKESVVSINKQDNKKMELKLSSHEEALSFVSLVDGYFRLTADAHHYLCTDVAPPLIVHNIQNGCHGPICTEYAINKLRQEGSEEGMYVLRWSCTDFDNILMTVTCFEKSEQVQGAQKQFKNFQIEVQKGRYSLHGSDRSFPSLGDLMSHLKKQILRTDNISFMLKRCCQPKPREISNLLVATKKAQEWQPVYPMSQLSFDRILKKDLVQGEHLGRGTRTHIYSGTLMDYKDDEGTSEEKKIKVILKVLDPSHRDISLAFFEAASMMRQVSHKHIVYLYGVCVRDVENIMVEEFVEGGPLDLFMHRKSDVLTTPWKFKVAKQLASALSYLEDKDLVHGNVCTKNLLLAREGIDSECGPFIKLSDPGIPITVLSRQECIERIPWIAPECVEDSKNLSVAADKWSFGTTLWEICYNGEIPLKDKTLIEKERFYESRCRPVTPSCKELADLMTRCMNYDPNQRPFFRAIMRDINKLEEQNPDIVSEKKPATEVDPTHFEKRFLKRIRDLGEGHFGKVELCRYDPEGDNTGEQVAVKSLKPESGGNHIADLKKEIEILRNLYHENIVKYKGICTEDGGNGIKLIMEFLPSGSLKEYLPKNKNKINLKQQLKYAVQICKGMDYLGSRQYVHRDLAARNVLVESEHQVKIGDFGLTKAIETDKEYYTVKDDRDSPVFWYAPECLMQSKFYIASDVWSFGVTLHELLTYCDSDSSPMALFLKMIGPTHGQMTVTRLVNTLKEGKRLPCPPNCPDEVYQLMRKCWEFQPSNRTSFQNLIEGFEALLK
T2 sequence (O60674 whole entry): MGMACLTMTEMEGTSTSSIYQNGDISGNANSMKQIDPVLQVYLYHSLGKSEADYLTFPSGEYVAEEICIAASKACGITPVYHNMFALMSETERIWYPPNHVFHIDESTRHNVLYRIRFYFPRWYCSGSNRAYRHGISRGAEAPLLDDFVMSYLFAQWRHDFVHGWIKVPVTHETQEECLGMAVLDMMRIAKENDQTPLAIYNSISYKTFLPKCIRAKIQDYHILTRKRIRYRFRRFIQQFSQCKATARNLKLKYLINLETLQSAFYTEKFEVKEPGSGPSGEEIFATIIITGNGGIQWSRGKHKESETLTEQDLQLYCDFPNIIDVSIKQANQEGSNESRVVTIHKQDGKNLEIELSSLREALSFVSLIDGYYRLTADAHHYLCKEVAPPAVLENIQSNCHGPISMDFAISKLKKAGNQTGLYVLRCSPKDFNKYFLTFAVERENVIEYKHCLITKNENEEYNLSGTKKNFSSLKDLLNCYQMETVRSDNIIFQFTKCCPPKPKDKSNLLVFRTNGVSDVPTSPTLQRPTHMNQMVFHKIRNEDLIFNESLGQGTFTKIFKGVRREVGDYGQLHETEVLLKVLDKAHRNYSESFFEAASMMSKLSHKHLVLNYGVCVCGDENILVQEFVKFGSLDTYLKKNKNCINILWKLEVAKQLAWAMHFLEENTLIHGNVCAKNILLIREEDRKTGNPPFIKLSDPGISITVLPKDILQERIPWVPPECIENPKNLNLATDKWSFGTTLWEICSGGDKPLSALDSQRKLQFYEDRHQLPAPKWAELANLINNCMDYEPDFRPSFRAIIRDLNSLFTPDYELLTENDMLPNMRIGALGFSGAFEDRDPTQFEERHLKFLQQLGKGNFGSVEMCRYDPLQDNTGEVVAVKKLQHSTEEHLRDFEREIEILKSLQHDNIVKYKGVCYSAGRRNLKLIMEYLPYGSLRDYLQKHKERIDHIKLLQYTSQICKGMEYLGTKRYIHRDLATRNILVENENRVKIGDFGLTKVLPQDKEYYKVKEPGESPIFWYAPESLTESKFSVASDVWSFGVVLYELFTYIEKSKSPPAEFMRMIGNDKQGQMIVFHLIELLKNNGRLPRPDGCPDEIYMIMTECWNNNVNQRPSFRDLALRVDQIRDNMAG

Compound	half-life at 5 μM [1] [min]	CLint scaled at 5 μM [1] [mL/min/kg]	half-life at 5 μM [2] [min]	CLint scaled at 5 μM [2] [mL/min/kg]	Cl/F [3] [mL/min/kg]	AUC(0-t) [3] [ng·h/mL]	half-life [3] [min]	Vd [3] [L/kg]	pIC50 [4]	pIC50 [5]
Cc1c2ccc(Nc3nccc(N(C)C4CCC5(CC4)CCN(C(=O)CC#N)C5)n3)cc2nn1C (stereo not drawn) [Ex. 2, 3-(8-((2-((2,3-dimethyl-2H-indazol-6-yl)amino)pyrimidin-4-yl)(methyl)amino)-2-azaspiro[4.5]decan-2-yl)-3-oxopropanenitrile]	20.3	85.5	22.2	112	49.8	332	109	3.59	–	–
Cc1cnc(Nc2ccc3c(C)n(C)nc3c2)nc1NC1CC2CN(S(C)(=O)=O)CC2C1 (stereo not drawn) [Ex. 10, N^2-(2,3-dimethyl-2H-indazol-6-yl)-5-methyl-N^4-(2-(methylsulfonyl)octahydrocyclopenta[c]pyrrol-5-yl)pyrimidine-2,4-diamine]	20	87	50.7	49	33.2	501	43.8	1.75	8.15	–
CC(=O)N1CCC2(CCC(Nc3nc(Nc4ccc5c(C)n(C)nc5c4)ncc3C)CC2)CC1 [Ex. 13, 1-(9-((2-((2,3-dimethyl-2H-indazol-6-yl)amino)-5-methylpyrimidin-4-yl)amino)-3-azaspiro[5.5]undecan-3-yl)ethanone]	51.7	33.6	27.9	89.2	75.5	238	38.4	3.5	8.70	–
Cc1cnc(Nc2ccc3c(C)n(C)nc3c2)nc1NC1CC2CN(C(=O)CC#N)CC2C1 (stereo not drawn) [Ex. 9, 3-(5-((2-((2,3-dimethyl-2H-indazol-6-yl)amino)-5-methylpyrimidin-4-yl)amino)hexahydrocyclopenta[c]pyrrol-2(1H)-yl)-3-oxopropanenitrile]	31.2	55.7	52.7	47.1	–	–	–	–	8.70	–
Cc1c2ccc(Nc3ncc(Cl)c(NC4CCC5(CC4)CCN(C(=O)CC#N)CC5)n3)cc2nn1C [Ex. 6, 3-(9-((5-chloro-2-((2,3-dimethyl-2H-indazol-6-yl)amino)pyrimidin-4-yl)amino)-3-azaspiro[5.5]undecan-3-yl)-3-oxopropanenitrile]	79.8	21.8	41	60.6	22.3	743	78.6	2.55	9.22	8.70
Cc1cnc(Nc2ccc3c(C)n(C)nc3c2)nc1NC1CCC2(CC1)CCN(C(=O)CC#N)CC2 [Ex. 12, 3-(9-((2-((2,3-dimethyl-2H-indazol-6-yl)amino)-5-methylpyrimidin-4-yl)amino)-3-azaspiro[5.5]undecan-3-yl)-3-oxopropanenitrile]	166	10.4	57.8	43	114	144	54	5.71	9.00	–
CC(=O)N1CC2CC(Nc3nc(Nc4ccc5c(C)n(C)nc5c4)ncc3C)CC2C1 (stereo not drawn) [Ex. 11, 1-(5-((2-((2,3-dimethyl-2H-indazol-6-yl)amino)-5-methylpyrimidin-4-yl)amino)hexahydrocyclopenta[c]pyrrol-2(1H)-yl)ethanone]	–	–	–	–	–	–	–	–	7.24	–
